Test results reported in patent US10738028B2, “Spiro three-membered ring, spiro five-membered ring peptide deformylase inhibitor and use thereof in antibacteria and anti-tumor” (priority 2016, dated 2020).

Assays:
Format in all cases: cell-based
[1] = system: Enterococcus faecalis (EFA); assay: MIC, two-fold agar dilution (CLSI), clinical isolates
Method in brief: (§1)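 Following the American Clinical and Laboratory Standards Institute procedure, agar two-fold dilution served to determine minimum inhibitory concentrations.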

[2] = system: Enterococcus faecium (EFM); assay: as above
Method in brief: as §1

[3] = system: Escherichia coli (including ESBLs, non-ESBLs); assay: as above
Method in brief: as §1

[4] = system: Moraxella catarrhalis (BCA); assay: as above
Method in brief: as §1

[5] = system: Streptococcus pneoumoniae (SPN); assay: as above
Method in brief: as §1

[6] = system: methicillin-resistant Staphylococcus aureus (MRSA); assay: as above
Method in brief: as §1

[7] = system: methicillin-resistant Staphylococcus epidermidis (MRSE); assay: as above
Method in brief: as §1

[8] = system: methicillin-sensitive Staphylococcus aureus (MSSA); assay: as above
Method in brief: as §1

[9] = system: methicillin-sensitive Staphylococcus epidermidis (MSSE); assay: as above
Method in brief: as §1

[10] = system: HCT-116 colorectal cancer cell line; assay: CCK-8 proliferation inhibition; details: concentration of 30 μM, 72 hours, CCK-8; for HCT116 inhibition rate/%: 30 µM
Method in brief: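 Growth inhibition is read by CCK-8 (1:10 dilution) after 72 h of compound exposure. HCT-116 cells grow in McCoy's 5A containing 10% newborn bovine serum at 2000 cells/well, with 1‰ DMSO as vehicle control.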

[11] = system: A549 lung cancer cell line; assay: CCK-8 proliferation inhibition; details: concentration of 30 μM; for inhibition at 30 µM: Homo sapiens, A549, 72 h; for Inhibition of proliferation, Lung cancer A549: 72 hours, 30 µM
Method in brief: (§2)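 Plating at 2000 cells/well, then incubation overnight at 37° C. Next, a range of compound concentrations for 72 hours (control 1‰ DMSO). Finally, medium decanted and CCK-8 diluted 1:10 added.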

[12] = system: BEL-7402 liver cancer cell line; assay: CCK-8 proliferation inhibition; details: concentration of 30 μM; for Inhibition of proliferation, Liver cancer BEL-7402: 72 hours, 30 µM
Method in brief: as §2

[13] = system: MGC-803 gastric cancer cell line; assay: CCK-8 proliferation inhibition; details: concentration of 30 μM; for inhibition at 30 µM: Homo sapiens, MGC-803, 72 h
Method in brief: as §2

## CCCC[C@H](CC(=O)NO)C(=O)N1CC2(CCCC2)C[C@H]1C(=O)Nc1ccc(F)cn1 [Example 78, (S)—N-(5-fluoropyridin-2-yl)-2-((R)-2-(2-(hydroxyamino)-2-oxoethyl)hexanoyl)-2-spiro[4.4]nonane-3-carboxamide]
[1]; strain EFA 15-1
  Anti-bacterial activity (MIC): > 32 µg/mL
[1]; strain EFA 15-2
  Anti-bacterial activity (MIC): > 32 µg/mL
[1]; strain EFA 15-3
  Anti-bacterial activity (MIC): > 32 µg/mL
[1]; strain EFA 15-4
  Anti-bacterial activity (MIC): > 32 µg/mL
[1]; strain EFA 15-5
  Anti-bacterial activity (MIC): > 32 µg/mL
[1]; strain EFA 15-6
  Anti-bacterial activity (MIC): > 32 µg/mL
[1]; strain EFA 15-9
  Anti-bacterial activity (MIC): > 32 µg/mL
[2]; strain EFM 15-1
  Anti-bacterial activity (MIC): > 32 µg/mL
[2]; strain EFM 15-2
  Anti-bacterial activity (MIC): > 32 µg/mL
[2]; strain EFM 15-3
  Anti-bacterial activity (MIC): > 32 µg/mL
[2]; strain EFM 15-4
  Anti-bacterial activity (MIC): 2 µg/mL
[2]; strain EFM 15-5
  Anti-bacterial activity (MIC): 0.25 µg/mL
[2]; strain EFM 15-6
  Anti-bacterial activity (MIC): 1 µg/mL
[3]; clinical isolate ECO+ 15-1
  Anti-bacterial activity (MIC), strain ECO+ 15-1: 16 µg/mL
[3]; clinical isolate ECO+ 15-2
  Anti-bacterial activity (MIC), strain ECO+ 15-2: > 32 µg/mL
[3]; clinical isolate ECO+ 15-3
  Anti-bacterial activity (MIC), strain ECO+ 15-3: > 32 µg/mL
[3]; clinical isolate ECO+ 15-4
  Anti-bacterial activity (MIC), strain ECO+ 15-4: > 32 µg/mL
[3]; clinical isolate ECO− 15-1
  Anti-bacterial activity (MIC), strain ECO− 15-1: > 32 µg/mL
[3]; clinical isolate ECO− 15-2
  Anti-bacterial activity (MIC), strain ECO− 15-2: > 32 µg/mL
[3]; clinical isolate ECO− 15-3
  Anti-bacterial activity (MIC), strain ECO− 15-3: > 32 µg/mL
[3]; clinical isolate ECO− 15-4
  Anti-bacterial activity (MIC), strain ECO− 15-4: > 32 µg/mL
[4]; strain BCA 14-1
  Anti-bacterial activity (MIC): 0.5 µg/mL
[4]; strain BCA 14-4
  Anti-bacterial activity (MIC): 1 µg/mL
[4]; strain BCA 14-5
  Anti-bacterial activity (MIC): 1 µg/mL
[4]; strain BCA 14-6
  Anti-bacterial activity (MIC): 0.5 µg/mL
[4]; strain BCA 14-7
  Anti-bacterial activity (MIC): 0.5 µg/mL
[4]; strain BCA 14-8
  Anti-bacterial activity (MIC): 0.25 µg/mL
[4]; strain BCA 14-10
  Anti-bacterial activity (MIC): 0.25 µg/mL
[5]; strain SPN 16-2
  Anti-bacterial activity (MIC): 0.03 µg/mL
[5]; strain SPN 16-4
  Anti-bacterial activity (MIC): 0.25 µg/mL
[6]; clinical isolate MRSA 15-1
  Anti-bacterial activity (MIC), strain MRSA 15-1: 0.06 µg/mL
[6]; clinical isolate MRSA 15-2
  Anti-bacterial activity (MIC), strain MRSA 15-2: 0.5 µg/mL
[6]; clinical isolate MRSA 15-3
  Anti-bacterial activity (MIC), strain MRSA 15-3: 0.125 µg/mL
[6]; clinical isolate MRSA 15-4
  Anti-bacterial activity (MIC), strain MRSA 15-4: 0.5 µg/mL
[7]; clinical isolate MRSE 15-1
  Anti-bacterial activity (MIC), strain MRSE 15-1: 0.125 µg/mL
[7]; clinical isolate MRSE 15-2
  Anti-bacterial activity (MIC), strain MRSE 15-2: 1 µg/mL
[7]; clinical isolate MRSE 15-3
  Anti-bacterial activity (MIC), strain MRSE 15-3: 1 µg/mL
[7]; clinical isolate MRSE 15-7
  Anti-bacterial activity (MIC), strain MRSE 15-7: 1 µg/mL
[8]; clinical isolate MSSA 15-3
  Anti-bacterial activity (MIC), strain MSSA 15-3: 0.5 µg/mL
[8]; clinical isolate MSSA 15-4
  Anti-bacterial activity (MIC), strain MSSA 15-4: 0.125 µg/mL
[8]; clinical isolate MSSA 15-5
  Anti-bacterial activity (MIC), strain MSSA 15-5: 0.03 µg/mL
[8]; clinical isolate MSSA 15-6
  Anti-bacterial activity (MIC), strain MSSA 15-6: > 32 µg/mL
[9]; clinical isolate MSSE 15-3
  Anti-bacterial activity (MIC), strain MSSE 15-3: 0.25 µg/mL
[9]; clinical isolate MSSE 15-4
  Anti-bacterial activity (MIC), strain MSSE 15-4: 0.25 µg/mL
[9]; clinical isolate MSSE 15-5
  Anti-bacterial activity (MIC), strain MSSE 15-5: 0.25 µg/mL
[9]; clinical isolate MSSE 15-6
  Anti-bacterial activity (MIC), strain MSSE 15-6: 0.03 µg/mL
[10]; Homo sapiens, HCT-116, 72 h, read-out: HCT116 inhibition rate/%
  inhibition at 30 µM: > 50%
[10]
  HCT116 inhibition rate/%: 52%
[11]
  inhibition at 30 µM: > 50%
  Inhibition of proliferation, Lung cancer A549: 54%
[12]; Homo sapiens, Bel-7402, 72 h
  inhibition at 30 µM: > 50%
[12]
  Inhibition of proliferation, Liver cancer BEL-7402: 67%
[13]
  inhibition at 30 µM: 44%

## CCCC[C@H](CC(=O)NO)C(=O)N1CC2(CCCC2)C[C@H]1C(=O)Nc1ncc(C)s1 [Example 79, (S)-2-((R)-2-(2-(hydroxyamino)-2-oxoethyl)hexanoyl)-N-(5-methylthiazol-2-yl)-2-azaspiro[4.4]nonane-3-amide]
[1]; strain EFA 15-1
  Anti-bacterial activity (MIC): 32 µg/mL
[1]; strain EFA 15-2
  Anti-bacterial activity (MIC): 32 µg/mL
[1]; strain EFA 15-3
  Anti-bacterial activity (MIC): 32 µg/mL
[1]; strain EFA 15-4
  Anti-bacterial activity (MIC): 32 µg/mL
[1]; strain EFA 15-5
  Anti-bacterial activity (MIC): 32 µg/mL
[1]; strain EFA 15-6
  Anti-bacterial activity (MIC): 32 µg/mL
[1]; strain EFA 15-9
  Anti-bacterial activity (MIC): 32 µg/mL
[2]; strain EFM 15-1
  Anti-bacterial activity (MIC): 32 µg/mL
[2]; strain EFM 15-2
  Anti-bacterial activity (MIC): 32 µg/mL
[2]; strain EFM 15-3
  Anti-bacterial activity (MIC): 32 µg/mL
[2]; strain EFM 15-4
  Anti-bacterial activity (MIC): 1 µg/mL
[2]; strain EFM 15-5
  Anti-bacterial activity (MIC): 1 µg/mL
[2]; strain EFM 15-6
  Anti-bacterial activity (MIC): 1 µg/mL
[3]; strain ECO+ 15-1
  Anti-bacterial activity (MIC): 32 µg/mL
[3]; strain ECO+ 15-2
  Anti-bacterial activity (MIC): > 32 µg/mL
[3]; strain ECO+ 15-3
  Anti-bacterial activity (MIC): > 32 µg/mL
[3]; strain ECO+ 15-4
  Anti-bacterial activity (MIC): > 32 µg/mL
[3]; strain ECO− 15-1
  Anti-bacterial activity (MIC): > 32 µg/mL
[3]; strain ECO− 15-2
  Anti-bacterial activity (MIC): > 32 µg/mL
[3]; strain ECO− 15-3
  Anti-bacterial activity (MIC): > 32 µg/mL
[3]; strain ECO− 15-4
  Anti-bacterial activity (MIC): > 32 µg/mL
[4]; strain BCA 14-1
  Anti-bacterial activity (MIC): 0.25 µg/mL
[4]; strain BCA 14-4
  Anti-bacterial activity (MIC): 1 µg/mL
[4]; strain BCA 14-5
  Anti-bacterial activity (MIC): 0.25 µg/mL
[4]; strain BCA 14-6
  Anti-bacterial activity (MIC): 1 µg/mL
[4]; strain BCA 14-7
  Anti-bacterial activity (MIC): 0.5 µg/mL
[4]; strain BCA 14-8
  Anti-bacterial activity (MIC): 0.5 µg/mL
[4]; strain BCA 14-10
  Anti-bacterial activity (MIC): 0.25 µg/mL
[5]; strain SPN 16-2
  Anti-bacterial activity (MIC): 0.06 µg/mL
[5]; strain SPN 16-4
  Anti-bacterial activity (MIC): 0.25 µg/mL
[6]; strain MRSA 15-1
  Anti-bacterial activity (MIC): 0.25 µg/mL
[6]; strain MRSA 15-2
  Anti-bacterial activity (MIC): 0.25 µg/mL
[6]; strain MRSA 15-3
  Anti-bacterial activity (MIC): 0.125 µg/mL
[6]; strain MRSA 15-4
  Anti-bacterial activity (MIC): 0.25 µg/mL
[7]; strain MRSE 15-1
  Anti-bacterial activity (MIC): 0.25 µg/mL
[7]; strain MRSE 15-2
  Anti-bacterial activity (MIC): 2 µg/mL
[7]; strain MRSE 15-3
  Anti-bacterial activity (MIC): 2 µg/mL
[7]; strain MRSE 15-7
  Anti-bacterial activity (MIC): 2 µg/mL
[8]; strain MSSA 15-3
  Anti-bacterial activity (MIC): 0.5 µg/mL
[8]; strain MSSA 15-4
  Anti-bacterial activity (MIC): 0.125 µg/mL
[8]; strain MSSA 15-5
  Anti-bacterial activity (MIC): 0.125 µg/mL
[8]; strain MSSA 15-6
  Anti-bacterial activity (MIC): > 32 µg/mL
[9]; strain MSSE 15-3
  Anti-bacterial activity (MIC): 0.25 µg/mL
[9]; strain MSSE 15-4
  Anti-bacterial activity (MIC): 1 µg/mL
[9]; strain MSSE 15-5
  Anti-bacterial activity (MIC): 1 µg/mL
[9]; strain MSSE 15-6
  Anti-bacterial activity (MIC): 0.03 µg/mL
[10]
  HCT116 inhibition rate/%: 75%
[11]
  inhibition at 30 µM: > 50%
  Inhibition of proliferation, Lung cancer A549: 50%
[12]
  Inhibition of proliferation, Liver cancer BEL-7402: 77%
[13]
  inhibition at 30 µM: > 50%
[13]; 72 hours, 30 µM
  Inhibition of proliferation, Gastric cancer MGC-803: 54%
